{
  "source": "patent US20090281049A1",
  "about": "“New use of ginsenoside compound-k in manufacturing medicaments” (priority 2006, published 2009)",
  "tested_on": "Adjuvant Arthritis in rats",
  "assay": "Preventive effect on adjuvant induced adjuvant arthritis in rats",
  "type": "in vivo, Rat, SD strain",
  "experimental": "Freund's Adjuvant Complete, purchased from Sigma Company, was injected into the plantar surface of the right hind paw by 0.1 ml in order to induce inflammation in rats.\nAnimals were firstly divided into large dose group: 10 mg/kg, iv, medium dose group: 5 mg/kg, iv, small dose group: 2.5 mg/kg, iv, Indomethacin group: 1 mg/kg, po, Tripterygium Wilfordii Hook group: 1.5 mg/kg, po and blank control group: physiological saline 10 mg/kg, iv. The volume of the right hind paw of the rats was measured by using hydroplethismometer before inflammation induced. Then 0.1 ml Freund's Adjuvant Complete was injected into the plantar surface of the right hind paw in order to induce inflammation in rats. The rats were grouped by the foregoing division way in the succeeding day, and to be administered for 15 days. The volume of paw was measured in regular intervals. Swell rate and inhibition rate were calculated by the same method as the foregoing. Differences among groups were compared by t test.",
  "data": [
    {"smiles": "CC(C)=CCC[C@](C)(O[C@@H]1O[C@H](CO)[C@@H](O)[C@H](O)[C@H]1O)[C@H]1CC[C@]2(C)[C@@H]1[C@H](O)C[C@@H]1[C@@]3(C)CC[C@H](O)C(C)(C)[C@@H]3CC[C@]12C", "note": "[Ginsenoside Compound-K, ginsenoside Compound-K]", "values": [
      {"measurement": "swell value", "setting": "2.5 mg/kg iv, 0 day", "value": "1.24 ± 0.08", "unit": "mL"},
      {"measurement": "inhibition rate", "setting": "2.5 mg/kg iv, 2 day", "value": "<21.71> %"},
      {"measurement": "swell rate", "setting": "2.5 mg/kg iv, 2 day", "value": "(56.65 ± 17.83) %"},
      {"measurement": "swell value", "setting": "2.5 mg/kg iv, 2 day", "value": "2.14 ± 0.15", "unit": "mL"},
      {"measurement": "inhibition rate", "setting": "2.5 mg/kg iv, 4 day", "value": "<18.33> %"},
      {"measurement": "swell rate", "setting": "2.5 mg/kg iv, 4 day", "value": "(73.11 ± 15.82) %"},
      {"measurement": "swell value", "setting": "2.5 mg/kg iv, 4 day", "value": "2.14 ± 0.15", "unit": "mL"},
      {"measurement": "inhibition rate", "setting": "2.5 mg/kg iv, 6 day", "value": "<20.67> %"},
      {"measurement": "swell rate", "setting": "2.5 mg/kg iv, 6 day", "value": "(70.87 ± 14.91) %"},
      {"measurement": "swell value", "setting": "2.5 mg/kg iv, 6 day", "value": "2.11 ± 0.10", "unit": "mL"},
      {"measurement": "inhibition rate", "setting": "2.5 mg/kg iv, 9 day", "value": "<20.95> %"},
      {"measurement": "swell rate", "setting": "2.5 mg/kg iv, 9 day", "value": "(57.25 ± 14.42) %"},
      {"measurement": "swell value", "setting": "2.5 mg/kg iv, 9 day", "value": "1.95 ± 0.17", "unit": "mL"},
      {"measurement": "inhibition rate", "setting": "2.5 mg/kg iv, 11 day", "value": "<20.82> %"},
      {"measurement": "swell rate", "setting": "2.5 mg/kg iv, 11 day", "value": "(61.69 ± 21.61) %"},
      {"measurement": "swell value", "setting": "2.5 mg/kg iv, 11 day", "value": "2.00 ± 0.26", "unit": "mL"},
      {"measurement": "inhibition rate", "setting": "2.5 mg/kg iv, 13 day", "value": "<25.97> %"},
      {"measurement": "swell rate", "setting": "2.5 mg/kg iv, 13 day", "value": "(61.24 ± 13.26) %"},
      {"measurement": "swell value", "setting": "2.5 mg/kg iv, 13 day", "value": "2.00 ± 0.15", "unit": "mL"},
      {"measurement": "inhibition rate", "setting": "2.5 mg/kg iv, 15 day", "value": "<28.05> %"},
      {"measurement": "swell rate", "setting": "2.5 mg/kg iv, 15 day", "value": "(58.02 ± 15.92) %"},
      {"measurement": "swell value", "setting": "2.5 mg/kg iv, 15 day", "value": "1.96 ± 0.20", "unit": "mL"},
      {"measurement": "swell value", "setting": "5 mg/kg iv, 0 day", "value": "1.25 ± 0.06", "unit": "mL"},
      {"measurement": "inhibition rate", "setting": "5 mg/kg iv, 2 day", "value": "<35.56> %"},
      {"measurement": "swell rate", "setting": "5 mg/kg iv, 2 day", "value": "(46.63 ± 11.66) %"},
      {"measurement": "swell value", "setting": "5 mg/kg iv, 2 day", "value": "2.10 ± 0.21", "unit": "mL"},
      {"measurement": "inhibition rate", "setting": "5 mg/kg iv, 4 day", "value": "<23.65> %"},
      {"measurement": "swell rate", "setting": "5 mg/kg iv, 4 day", "value": "(68.35 ± 15.68) %"},
      {"measurement": "swell value", "setting": "5 mg/kg iv, 4 day", "value": "2.10 ± 0.21", "unit": "mL"},
      {"measurement": "inhibition rate", "setting": "5 mg/kg iv, 6 day", "value": "<17.94> %"},
      {"measurement": "swell rate", "setting": "5 mg/kg iv, 6 day", "value": "(73.31 ± 17.73) %"},
      {"measurement": "swell value", "setting": "5 mg/kg iv, 6 day", "value": "2.16 ± 0.18", "unit": "mL"},
      {"measurement": "inhibition rate", "setting": "5 mg/kg iv, 9 day", "value": "<20.45> %"},
      {"measurement": "swell rate", "setting": "5 mg/kg iv, 9 day", "value": "(57.60 ± 13.83) %"},
      {"measurement": "swell value", "setting": "5 mg/kg iv, 9 day", "value": "1.97 ± 0.21", "unit": "mL"},
      {"measurement": "inhibition rate", "setting": "5 mg/kg iv, 11 day", "value": "<28.37> %"},
      {"measurement": "swell rate", "setting": "5 mg/kg iv, 11 day", "value": "(55.81 ± 11.54) %"},
      {"measurement": "swell value", "setting": "5 mg/kg iv, 11 day", "value": "1.95 ± 0.18", "unit": "mL"},
      {"measurement": "inhibition rate", "setting": "5 mg/kg iv, 13 day", "value": "<27.79> %"},
      {"measurement": "swell rate", "setting": "5 mg/kg iv, 13 day", "value": "(59.74 ± 11.82) %"},
      {"measurement": "swell value", "setting": "5 mg/kg iv, 13 day", "value": "2.00 ± 0.18", "unit": "mL"},
      {"measurement": "inhibition rate", "setting": "5 mg/kg iv, 15 day", "value": "<29.21> %"},
      {"measurement": "swell rate", "setting": "5 mg/kg iv, 15 day", "value": "(57.08 ± 14.00) %"},
      {"measurement": "swell value", "setting": "5 mg/kg iv, 15 day", "value": "1.96 ± 0.21", "unit": "mL"},
      {"measurement": "swell value", "setting": "10 mg/kg iv, 0 day", "value": "1.29 ± 0.08", "unit": "mL"},
      {"measurement": "inhibition rate", "setting": "10 mg/kg iv, 2 day", "value": "<29.48> %"},
      {"measurement": "swell rate", "setting": "10 mg/kg iv, 2 day", "value": "(51.03 ± 8.03) %"},
      {"measurement": "swell value", "setting": "10 mg/kg iv, 2 day", "value": "2.17 ± 0.14", "unit": "mL"},
      {"measurement": "inhibition rate", "setting": "10 mg/kg iv, 4 day", "value": "<22.99> %"},
      {"measurement": "swell rate", "setting": "10 mg/kg iv, 4 day", "value": "(68.94 ± 10.49) %"},
      {"measurement": "swell value", "setting": "10 mg/kg iv, 4 day", "value": "2.17 ± 0.14", "unit": "mL"},
      {"measurement": "inhibition rate", "setting": "10 mg/kg iv, 6 day", "value": "<19.52> %"},
      {"measurement": "swell rate", "setting": "10 mg/kg iv, 6 day", "value": "(71.90 ± 9.64%"},
      {"measurement": "swell value", "setting": "10 mg/kg iv, 6 day", "value": "2.21 ± 0.15", "unit": "mL"},
      {"measurement": "inhibition rate", "setting": "10 mg/kg iv, 9 day", "value": "<19.59> %"},
      {"measurement": "swell rate", "setting": "10 mg/kg iv, 9 day", "value": "(58.23 ± 11.44) %"},
      {"measurement": "swell value", "setting": "10 mg/kg iv, 9 day", "value": "2.03 ± 0.15", "unit": "mL"},
      {"measurement": "inhibition rate", "setting": "10 mg/kg iv, 11 day", "value": "<30.08> %"},
      {"measurement": "swell rate", "setting": "10 mg/kg iv, 11 day", "value": "(54.48 ± 12.39) %"},
      {"measurement": "swell value", "setting": "10 mg/kg iv, 11 day", "value": "1.98 ± 0.14", "unit": "mL"},
      {"measurement": "inhibition rate", "setting": "10 mg/kg iv, 13 day", "value": "<29.83> %"},
      {"measurement": "swell rate", "setting": "10 mg/kg iv, 13 day", "value": "(58.04 ± 10.97) %"},
      {"measurement": "swell value", "setting": "10 mg/kg iv, 13 day", "value": "2.03 ± 0.13", "unit": "mL"},
      {"measurement": "inhibition rate", "setting": "10 mg/kg iv, 15 day", "value": "<31.26> %"},
      {"measurement": "swell rate", "setting": "10 mg/kg iv, 15 day", "value": "(55.42 ± 14.65) %"},
      {"measurement": "swell value", "setting": "10 mg/kg iv, 15 day", "value": "1.99 ± 0.18", "unit": "mL"},
      {"measurement": "overall preventive effect on Adjuvant Arthritis", "setting": "rats, 10, 5, 2.5 mg/kg iv for 15 days", "value": "able to prevent Adjuvant Arthritis in rats"}
    ]}
  ]
}
